In patent publication US20230220331A1, “TEMPORARY TREATMENT MEDIUM, TREATMENT KIT, EMBRYOGENESIS ARREST INHIBITOR, EMBRYOGENESIS ARREST INHIBITORY METHOD, DEVELOPMENTAL ENGINEERING PRODUCT PREPARATION METHOD, TRANSPLANTATION METHOD, THERAPEUTIC METHOD, AND DEVELOPMENTAL ENGINEERING PRODUCT” (priority 2020, published 2023):

Tested on: frozen embryos of C57BL/6J
Assay: Recovery of re-frozen and re-thawed blastocysts, cytochalasin B vs Y-27632 (Treatment Example 10)
Assay type: cell-based, mouse
Settings: for RECOVERY RATE about 3 hours later / RECOVERY RATE about 24 hours later / RECOVERY RATE immediately after thawing / number of embryos ABOUT 3 HOURS LATER / number of embryos ABOUT 24 HOURS LATER / number of embryos IMMEDIATELY AFTER THAWING: 19 embryos
Experimental: In this treatment example, as in the above-mentioned treatment example 9, the normal medium (hereinafter, referred to as “Y− medium” as in the treatment example 9), the temporary treatment medium to which Y-27632 is added (hereinafter, referred to as “Y+ medium” as in the treatment example 9), and a CB-added medium (hereinafter, referred to as “CB+ medium”) were used. The concentrations of CB in the CB+ medium were 5 μM and 10 μM are prepared. As the manipulation, the recovery rates when frozen embryos were thawed and developed, then re-frozen in blastocysts and re-thawed were compared.
For the treatment, 107 frozen embryos of C57BL/6J (provided from CLEA Japan, Inc.) at the 2-cell stage were used. Firstly, the frozen embryos at the 2-cell stage were thawed and blastocysts were developed as they were in a normal medium.
Then, the blastocysts were then transferred to each of the above media and placed for 30 minutes. Then, the embryos were transferred to Y− medium again and placed for 30 minutes.
Then, each embryo was frozen.
Then, the embryos were then thawed and placed in M2 medium for 10 minutes.
Then, each embryo was evenly divided and placed on the medium for 1 hour.
The embryos were observed by returning to the Y− medium again. This observation was performed immediately after thawing, 3 hours later, and 24 hours later.

C=C1[C@@H](C)[C@H]2[C@H](Cc3ccccc3)NC(=O)[C@]23OC(=O)/C=C/[C@H](O)CCC[C@@H](C)C/C=C/[C@H]3[C@@H]1O [CB+ mWM, 2H-Oxacyclotetradecino[2,3-d]isoindole-2,18(5H)-dione, 6,7,8,9,10,12a,13,14,15,15a,16,17-dodecahydro-5,13-dihydroxy-9,15-dimethyl-14-methyl ene-16-(phenylmethyl)-, (3E,5R,9R,11E,12aS,13S,15S,15aS,16S,18aS)-]
RECOVERY RATE about 3 hours later (5 μM in mWM): 94% | RECOVERY RATE about 24 hours later (5 μM in mWM): 78% | RECOVERY RATE immediately after thawing (5 μM in mWM): 26% | number of embryos ABOUT 3 HOURS LATER (5 μM in mWM): 18 | number of embryos ABOUT 24 HOURS LATER (5 μM in mWM): 15 | number of embryos IMMEDIATELY AFTER THAWING (5 μM in mWM): 5 | RECOVERY RATE about 3 hours later (10 μM in mWM): 52% | RECOVERY RATE about 24 hours later (10 μM in mWM): 63% | RECOVERY RATE immediately after thawing (10 μM in mWM): 10% | number of embryos ABOUT 3 HOURS LATER (10 μM in mWM): 10 | number of embryos ABOUT 24 HOURS LATER (10 μM in mWM): 12 | number of embryos IMMEDIATELY AFTER THAWING (10 μM in mWM): 2 | recovery rate of 5 μM higher than that of 10 μM (after 24 hours): 15%
